According to patent US5753681A, “Treatment and prophylaxis of pancreatitis” (Sankyo Company, Limited, priority 1996, dated 1998):

Experiments:
[1] = Histopathology of pancreatic tissue of Example 3: total cross-sectional area and cicatrized area; type: in vivo, male WBN/Kob rats; conditions: doses of Example 3
Procedure: The measurement of the cicatrized area may also be carried out by conventional procedures. More specifically, male WBN/Kob rats are used as models of spontaneous chronic pancreatitis and are fed with a powdered feed admixed with a test compound. The pancreas of each animal is then totally enucleated. Its weight is measured and also the cicatrized area is measured relative to the total cross-sectional area of the pancreas tissue sliced by an image analyser.
(§1) The procedure described in Example 2 was repeated, except that the test compound was pioglitazone ("the pioglitazone group"), BRL-49653 ("the BRL-49653 group"), or Compound A ("the Compound A group").
In order to evaluate the results of Example 2 histopathologically, each pancreas used for weight measurement in Example 2 was fixed in 10% neutral formalin. It was then divided into a spleen side half and a duodenum side half, and each half was sliced at 3 mm intervals to provide cross-sectional tissue pieces. All of these tissue pieces were subjected to paraffin sectioning by conventional procedures and then to hematoxylin-eosin staining and Masson's trichrome staining to prepare two tissue preparations, which were used for histopathological examination. The total cross-sectional area of the pancreatic tissue piece on each preparation was measured using an image analyser (SPICCAII, manufactured by Olympus Optical Co., Ltd.).
In addition, the surface area of the zone which had undergone degeneration and necrosis and in which the exocrine pancreatic tissue was replaced with connective tissue (the cicatrized area) was measured using an image analyser.
In order to evaluate the results of Example 3 histopathologically, the total cross-sectional area and cicatrized area of each pancreas whose weight was measured in Example 3 was measured by the procedure described in Example 4.

[2] = Suppression of the decrease in the pancreatic weight in a model of spontaneous chronic pancreatitis; type: in vivo, male WBN/Kob rats; conditions: in feed: pioglitazone 0.05% (25 mg/kg/day), BRL-49653 0.005% (2.5), Compound A 0.005% (3.0); three months; normal 1152 ± 43, control 680 ± 26; ***p < 0.001 (pioglitazone, BRL-49653), **p < 0.01 (Compound A)
Text: The test animals were male WBN/Kob rats, which are commonly used as models of spontaneous chronic pancreatitis and suffer pancreatic weight loss and dysfunction of the exocrine pancreatic tissue due to degeneration and necrosis of the pancreatic parenchyma and its replacement by connective tissue [Tsuchitani et al., Laboratory Animals, 19(3), 200-207, (1985)]. Each group of test animals contained 4 animals, and the animals were used for the experiment when they had reached 12 weeks old. The animals were fed with powdered feed F2 mixed with 0.2% of troglitazone for three months. This group is hereinafter referred to as "the treated group". The average dose of the compound during this period was 140 mg/kg/day. Meanwhile, another four rats (control group) were fed with the powdered feed F2 only. After the rats had been fed with the feeds for three months, the pancreas of each animal was totally enucleated and its weight was measured.
as §1

Acute toxicity = type: in vivo, ddY mice (male); conditions: oral dose of 300 mg/kg or more
Procedure: Acute toxicity was assayed by conventional procedures. […] At the end of this time, the animals were all alive. When the acute toxicities of Compounds No. 2, 3, 4 and 10 were measured in the same manner, the mice were all alive after an oral dose of 300 mg/kg or more.

[3] = duodenum side, control 5.52 ± 0.86, **p < 0.01 all three
[4] = duodenum side, control 90.3 ± 14.9
[5] = spleen side pancreatic half, control 8.11 ± 0.76, *p < 0.05 pioglitazone, **p < 0.01 Compound A
[6] = spleen side pancreatic half, control 99.3 ± 9.8, **p < 0.01 pioglitazone, *p < 0.05 BRL-49653

SMILES	Cicatrized area in the exocrine pancreatic tissue [1, 3] [mm^2]	Total cross-sectional area of pancreatic tissue piece [1, 4] [mm^2]	Cicatrized area in the exocrine pancreatic tissue [1, 5] [mm^2]	Total cross-sectional area of pancreatic tissue piece [1, 6] [mm^2]	Pancreatic weight [2] [mg]	Survival (acute toxicity) (Acute toxicity)
CC(=NOCCOc1ccc(CC2SC(=O)NC2=O)cc1)c1ccc(-c2ccccn2)cc1 (stereo not shown) [Compound A, 5-(4-{2-[1-(4-2'-pyridylphenyl)ethylideneaminooxy]ethoxy}-benzyl)thiazolidine-2,4-dione]	1.17 ± 0.15	90.3 ± 10.2	2.62 ± 0.51	100.8 ± 12.5	853 ± 44	–
CC1(COc2ccc(CC3SC(=O)NC3=O)cc2)CCc2cc(O)ccc2O1 (stereo not shown) [compound 3]	–	–	–	–	–	all alive
CCOC(=O)Oc1c(C)c(C)c2c(c1C)CCC(C)(COc1ccc(CC3SC(=O)NC3=O)cc1)O2 (stereo not shown) [compound 10, 5-[4-(6-Ethoxycarbonyloxy-2,5,7,8-tetramethylchroman-2-ylmethoxy)benzyl]-thiazolidine-2,4-dione]	–	–	–	–	–	all alive
CN(CCOc1ccc(CC2SC(=O)NC2=O)cc1)c1ccccn1 (stereo not shown) [BRL-49653, 5-[4-{2-[N-Methyl-N-(pyridin-2-yl)amino]ethoxy}benzyl]-thiazolidine-2,4-dione]	1.21 ± 0.40	100.9 ± 2.1	5.40 ± 1.35	147.2 ± 14.2	976 ± 51	–
CCc1ccc(CCOc2ccc(CC3SC(=O)NC3=O)cc2)nc1 (stereo not shown) [Pioglitazone, 5-{4-[2-(5-Ethylpyridin-2-yl)ethoxy]benzyl}thiazolidine-2,4-dione]	1.12 ± 0.26	122.0 ± 9.8	4.98 ± 1.03	157.8 ± 16.1	982 ± 52	–
Cc1c(C)c2c(c(C)c1O)CCC(COc1ccc(CC3SC(=O)NC3=O)cc1)O2 (stereo not shown) [compound 2]	–	–	–	–	–	all alive
CC1(COc2ccc(CC3SC(=O)NC3=O)cc2)CCc2cc(O)c(C(C)(C)C)cc2O1 (stereo not shown) [compound 4, 5-[4-(6-Hydroxy-2-methyl-7-t-butylchroman-2-ylmethoxy)benzyl]thiazolidine-2,4-dione]	–	–	–	–	–	all alive
